According to US7425567B2, “Piperidine derivative compounds and drugs containing the compounds as the active ingredient” (Ono Pharmaceutical Co., Ltd., priority 2002, dated 2008):

Assays:
[1] = system: TNF-α production; test: TNF-α production inhibitory effect in LPS-stimulated heparinized blood; type: cell-based; conditions: blood of a healthy person, 6 hours incubation, human TNF-α ELISA
Description: A heparinized blood sample collected from a healthy person was dispensed in 180 μl/well into a 96-well plate. A solution of compound 1 (final concentration of DMSO: 0.1% or less) was dispensed at 10 μl and the plate was allowed to stand at 37° C. for 30 minutes in a 5% CO2 incubator. The reaction was initiated by adding 10 μl of LPS solution. After 6 hours of incubation in a CO2 incubator (5% CO2, humidified), the plate was shaken and then centrifuged at 300×g for 5 minutes to recover 50 μl of the supernatant (blood plasma). The amount of TNF-α in the supernatant was measured using a human TNF-α ELISA kit (DIACLONE Cat. No. 850.090.096) in accordance with the method attached thereto.

[2] = molecular target: PDE4; test: In vitro enzyme assay, PDE4 inhibitory activity; type: biochemical; conditions: PDE4 enzyme solution from U937 cells (derived from human monocyte), 3H-cAMP substrate, room temperature, 30 minutes; read-out: IC50 (concentration of 50% inhibition of PDE4 activity)
Description: U937 cells (derived from human monocyte) were cultured in PRMI 1640 medium containing 10% bovine fetal serum. The U937 cells were harvested and homogenized in 50 mM Tris-HCl buffer [pH 7.5, containing PMSF (1 mM), leupeptin (1 μg/ml) and pepstatin A (1 μg/ml)]. After centrifugation (at 15,000 rpm for 10 minutes), the supernatant was recovered and filtered through a 0.45 μm filter. The sample was applied to MonoQ (manufactured by Pharmacia, strong anion exchange resin) column and eluted by a density gradient of 0 to 0.8 M NaCl. Fractions from which the PDE activity was disappeared by 10 μM rolipram (a PDE4-selective inhibitor) were recovered and used as the enzyme solution for the measurement of PDE4 inhibitory activity.
The enzyme activity was measured by the following method. […] To an alumina column (100 μl), was applied 50 μl of the supernatant, eluted with 80 μl of 0.005 N hydrochloric acid, and radioactivity of the eluate was measured.
PDE4 inhibitory activity ratio of the compound of the present invention of formula (I) was calculated by the following equation: PDE4 activity inhibitory ratio (%)=(1−radioactivity in the presence of the compound of the present invention of formula (1)/radioactivity in the absence of the compound of the present invention of formula (I))×100 […]

`N#CC1(c2ccc(OC(F)F)c(OC3CCCC3)c2)CCN(CC(=O)O)CC1` [compound 1, 2-(4-(3-cyclopentyloxy-4-difluoromethoxyphenyl)-4-cyanopiperidin-1-yl)acetic acid monohydrate] was tested, and the “inhibitory activity against TNF-α production” value [1] was “dose-dependent inhibitory activity” and the IC50 [2] was 42 nM.
